US10209240B2, “Predicting human developmental toxicity of pharmaceuticals using human stem-like cells and metabolomic ratios” (STEMINA BIOMARKER DISCOVERY, INC., priority 2012, dated 2019)

Key:
rat whole embryo = conditions: training and test set; weak/moderate and strong teratogens both labeled teratogen; cited from earlier work
WA09 hES cells = conditions: for Teratogenicity Potential (μM) Cell Viability: human, 72 h
Humans = conditions: cited from earlier work; for Humans (known human developmental toxicity): training and test set; for Known Effect: validation and test set treatments of Example 2
hES cells [1] = experiment: ADMA/cystine ratio simplified predictive model in hES cell spent media; assay type: cell-based, human; conditions: single dose per treatment; ratios less than 0.9 indicate teratogenicity
Method in brief: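 hES cell spent media were analysed for ADMA and cystine, each normalized to the DMSO reference, and their ratio formed. Each value is the median of independent blocks (6 reps each). A ratio cutoff of 0.9 classifies teratogens versus non-teratogens.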

hES cells [2] = experiment: devTOX computational model predictions (Version 2.0, Version 2.1) from hES cell metabolomics; assay type: cell-based, human; conditions: single dose per treatment (Dose column)
Excerpt: The selection process weighted the predictive capacity of a feature, overall intensity, and peak shape to identify very well behaved features/metabolites that could be measured by targeted LC-MS or even by other detection systems.
This simplified model is based on a ratio of the reference treatment (DMSO) normalized values of ADMA and cystine.

[3] = training set compounds; summarized from TERIS and Briggs et al. 2011; cited from earlier work
Rabbit = conditions: training and test set; cited from earlier work

SMILES | WEC prediction (rat whole embryo) | Viability Prediction (WA09 hES cells) | Teratogenicity Potential (μM) Cell Viability (WA09 hES cells) | Humans (known human developmental toxicity) (Humans) | Known Effect (Humans) | Model Predictions ADMA/Cystine (hES cells [1]) | Model Predictions Version 2.0 (hES cells [2]) | Model Predictions Version 2.1 (hES cells [2]) | Preclinical in vivo and known human developmental effects [3] | Rabbit prediction (Rabbit)
NC(=O)N1c2ccccc2C=Cc2ccccc21 [Carbamazepine] | TER^j | NON | >300 µM | TER | Ter | Ter | Ter | Ter | Craniofacial, central | 
CC1=C(/C=C/C(C)=C/C=C/C(C)=C/C(=O)O)C(C)(C)CCC1 [All-trans Retinoic Acid] | TER^q,s | NON | 114.5 µM | TER | Ter | Ter | Ter | Ter | Craniofacial, limb, central | TER
CC1=C(/C=C/C(C)=C/C=C/C(C)=C\C(=O)O)C(C)(C)CCC1 [13-cis Retinoic Acid] | TER^s | NON | >300 µM | TER | Ter | Ter | Ter | Ter | Craniofacial, limb, central | TER
O=C1NC(=O)C(c2ccccc2)(c2ccccc2)N1 [Diphenylhydantoin] | TER^f,j | NON | 288.7 µM | TER | Ter | Non | Non | Non | Craniofacial, limb, | TER
O=C1CCC(N2C(=O)c3ccccc3C2=O)C(=O)N1 (stereo not shown) [Thalidomide] | TER^f | NON | >300 µM | TER | Ter | Ter | Ter | Ter | Craniofacial, | TER
